Data on one compound can be found in patent publication US12707803B2, “Light-emitting device” (Semiconductor Energy Laboratory Co., Ltd., priority 2022, dated 2026).

Molecules are shown by their SMILES. In brackets after ≈: the same amount, converted by molar mass.

A short description of this data set: water solubility of materials added to electron-injection buffer region. It counts as physicochemical. The text has this:
The table below lists the number of hydrophilic hpp groups, the number of hydrophobic tert-butyl groups, and water solubility of the materials added to the electron-injection buffer regions 914 in the light-emitting devices 7A to 7K.

As a reminder, the solubility is the concentration that dissolves in the medium under given conditions. A higher solubility goes with much dissolved substance. Compound `CC(C)(C)c1ccc2c(c1)C1(c3cc(N4CCCN5CCCN=C54)ccc3-c3ccc(N4CCCN5CCCN=C54)cc31)c1cc(C(C)(C)C)ccc1-2` [2′,7′tBu-2,7hpp2SF, 1,1′-(2′,7′-di-tert-butyl-9,9′-spirobi[9H-fluorene]-2,7-diyl)bis(1,3,4,6,7,8-hexahydro-2H-pyrimido[1,2-a]pyrimidine)] returned a solubility of 58 to 62 µg/mL (≈ 82.5 to 88.2 µM).
